Where two headings read alike, the source gives them in different places.
Experiments:
MV4-11 cells = assay: MV4-11 6-Day Cell Growth CTG (CellTiter-Glo) Assay; format: cell-based; conditions: Homo sapiens, MV4-11, 144 h, MV4-11 cell growth CellTiter-Glo, 6 days
Method in brief: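 MV4-11 AML cells (RPMI 1640, 10% FBS) seeded at 300 cells/well and exposed for 6 days at 37 °C to a 12-point, 1:3 compound series starting at 50 μM final. Viable cells read by CellTiter-Glo luminescence; percent inhibition versus DMSO-only wells fitted to dose-response curves for IC50.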

H3K4me3 in MV4-11 cells = assay: MV4-11 H3K4me3 Cellular ELISA Assay; format: cell-based; conditions: Homo sapiens, MV4-11, 48 h
Method in brief: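 MV4-11 cells were treated for 48 h with 12-point 1:3 compound dilutions (from 10 mM stock), then histones were acid-extracted with 0.5M HCl and neutralized. H3K4me3 and total H3 were measured by HRP chemiluminescent ELISA, and inhibition versus DMSO after H3 normalization was curve-fitted for IC50.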

[1] = molecular target: wild type MLL1 four-member complex (MLL1-4C) (Homo sapiens, UniProt Q03164); assay: MLL1 LC-MS Assay; format: biochemical
Method in brief: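 Compound pre-incubated 20 min with MLL1-4C and SAM, then H3[1-21]-biotin (H3K4me0) substrate added; final 30 nM enzyme, 2.5 μM SAM, 10 μM peptide in Tris pH 8.0 with MgCl2, DTT, Tween 20, BSA. After 120 min at rt, TFA-quenched SAH quantified by LC-MS/MS with d4-SAH; IC50 from dose-response fit.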

[2] = molecular target: wild type MLL1 five-member complex (MLL1-5C) (Homo sapiens, UniProt Q03164); assay: MLL1 Flashplate Assay; format: biochemical; conditions: read-out: MLL1 flash plate
Experimental: MLL1 Flashplate Assay To assess the compound potency in MLL1 Flashplate assay, compounds were serially diluted 3-fold in DMSO to obtain a total of twelve concentrations. Then the test compounds at each concentration (250 nL of each) were transferred by Mosquito into Corning #3675 384-well plate. Solutions (15 μL) of 4.2 nM wild type MLL1 five-member complex (MLL1-5C) in the assay buffer (20 mM Tris-HCl, pH 8.0, 0.01% Tween 20, 1 mM DTT, 0.01% BSA) were added to the wells. A 10 μL solution of 2.5 μM of the peptide substrate H3K4me0 (histone H3[1-21]-Biotin) and 1.25 μM ^3H-SAM in the reaction buffer was then added to initiate each reaction. The final components in the reaction solution include 2.5 nM MLL1-5C, 0.5 μM ^3H-SAM, and 1 μM H3K4me0 with varying concentration of the compounds. A positive control consisted of 2.5 nM MLL1-5C, 0.5 μM ^3H-SAM, and 1 μM substrate in the absence of the test compound, and a negative control consisted of 0.5 μM ^3H-SAM, and 1 μM substrate only. Each reaction was incubated at rt for 90 min, then stopped by addition of 5 μL per of quench solution (0.5 mM SAM in assay buffer). 25 μL of each reaction solution was transferred to FlashPlate streptavidin 384-well microplate (PerkinElmer). After at least 1 h incubation at rt, the wells were washed three times with 0.1% Tween-20 in dH2O using the BioTek plate washer. The plates were then read in MicroBeta (PerkinElmer). The radioactive readouts were then normalized based on the values coming from the positive and negative controls to give percent enzyme activities. The data were then fit to a dose response equation using the program Helios to get the IC50 values of the test compounds.

Row | SMILES | IC50 (MV4-11 cells) | IC50 (H3K4me3 in MV4-11 cells) | IC50 ([1]; read-out: LCMS) | IC50 [2] | IC50 ([1]; read-out: MLL1 LCMS)
1 | Nc1ncnc2c1ncn2Cc1c(Br)cc(Cl)cc1N1CC[C@](N)(CO)C1 [Example 19] | 2000 to 3000 nM | < 1900 nM | 50 to 100 nM | < 60 nM | –
2 | Nc1ncnc2c1ncn2Cc1cc(F)ccc1N1CC[C@](N)(C(=O)NC2CC2)C1 [Example 14] | 2000 to 3000 nM | < 1900 nM | > 100 nM | > 100 nM | –
3 | Nc1ncnc2c1ncn2Cc1c(N2CC[C@](N)(C(=O)NCc3cccnn3)C2)ccc(F)c1C(F)(F)F [Example 118] | < 2000 nM | < 1900 nM | 50 to 100 nM | < 60 nM | –
4 | Nc1ncnc2c1ncn2Cc1c(N2CCC(N)(c3ccccn3)C2)ccc(F)c1C(F)(F)F (centres unmarked) [Example 22] | < 2000 nM | < 1900 nM | 50 to 100 nM | 60 to 100 nM | –
5 | CCc1c(Cl)ccc(N2CC[C@](N)(C(=O)N3CCS(=O)(=O)CC3)C2)c1Cn1cnc2c(N)ncnc21 [Example 155] | < 2000 nM | < 1900 nM | – | > 100 nM | > 100 nM
6 | Nc1ncnc2c1ncn2Cc1c(N2CC[C@](N)(C(=O)N3CCc4nocc4C3)C2)ccc(F)c1C(F)(F)F [Example 134] | < 2000 nM | < 1900 nM | > 100 nM | < 60 nM | –
7 | Nc1ncnc2c1ncn2Cc1c(N2CC[C@](N)(C(=O)Nc3cc(C4CC4)n[nH]3)C2)ccc(F)c1C(F)(F)F [Example 123] | < 2000 nM | < 1900 nM | > 100 nM | < 60 nM | –
8 | NC(=O)[C@@]1(N)CCN(c2cc(Cl)cc(Br)c2Cn2cnc3c(N)ncnc32)C1 [Example 148] | < 2000 nM | < 1900 nM | – | < 60 nM | < 50 nM
9 | N#CC1CCN(C(=O)[C@@]2(N)CCN(c3ccc(F)c(C(F)(F)F)c3Cn3cnc4c(N)ncnc43)C2)C1 (some centres unmarked) [Example 141] | < 2000 nM | < 1900 nM | – | < 60 nM | < 50 nM
10 | CC(C)(C#N)CNC(=O)[C@@]1(N)CCN(c2ccc(F)c(C(F)(F)F)c2Cn2cnc3c(N)ncnc32)C1 [Example 125] | < 2000 nM | < 1900 nM | < 50 nM | < 60 nM | –
11 | N#CCC1CCN(C(=O)[C@@]2(N)CCN(c3ccc(F)c(C(F)(F)F)c3Cn3cnc4c(N)ncnc43)C2)CC1 [Example 119] | < 2000 nM | < 1900 nM | 50 to 100 nM | < 60 nM | –
12 | Nc1ncnc2c1ncn2Cc1c(Cl)c(Cl)cc(F)c1N1CCC(N)(C(=O)NC2CC2)C1 (centres unmarked) [Example 152] | < 2000 nM | < 1900 nM | – | < 60 nM | > 100 nM
13 | Nc1ncnc2c1ncn2Cc1c(Br)cc2c(c1N1CCC(N)(C(=O)NC3CC3)C1)OCO2 (centres unmarked) [Example 31] | < 2000 nM | < 1900 nM | < 50 nM | < 60 nM | –
14 | Nc1ncnc2c1ncn2Cc1c(N2CC[C@](N)(C(=O)N[C@@H]3C[C@H]3CO)C2)ccc(F)c1C(F)(F)F [Example 127] | < 2000 nM | < 1900 nM | < 50 nM | < 60 nM | –
15 | Nc1ncnc2c1ncn2Cc1c(N2CC[C@](N)(C(=O)N3CCC[C@@H](O)C3)C2)ccc(F)c1C(F)(F)F [Example 138] | < 2000 nM | < 1900 nM | 50 to 100 nM | < 60 nM | –
16 | N#CC1CN(C(=O)[C@@]2(N)CCN(c3ccc(F)c(C(F)(F)F)c3Cn3cnc4c(N)ncnc43)C2)C1 [Example 132] | < 2000 nM | < 1900 nM | 50 to 100 nM | < 60 nM | –

Row | SMILES | IC50 (MV4-11 cells) | IC50 (H3K4me3 in MV4-11 cells) | IC50 ([1]; read-out: LCMS) | IC50 [2] | IC50 ([1]; read-out: MLL1 LCMS)
17 | Nc1ncnc2c1ncn2Cc1c(N2CC[C@](N)(C(=O)NC3CC3)C2)cc(Cl)c(F)c1CN1CCOCC1 [Example 102, (R)-3-amino-1-(2-((6-amino-9H-purin-9-yl)methyl)-5-chloro-4-fluoro-3-(morpholinomethyl)phenyl)-N-cyclopropylpyrrolidine-3-carboxamide] | < 2000 nM | < 1900 nM | < 50 nM | < 60 nM | –
18 | CCn1ncnc1CNC(=O)[C@@]1(N)CCN(c2ccc(F)c(C(F)(F)F)c2Cn2cnc3c(N)ncnc32)C1 [Example 140] | < 2000 nM | < 1900 nM | > 100 nM | 60 to 100 nM | –
19 | CCc1c(C#N)c(Cl)cc(N2CC[C@](N)(C(=O)NC3CC3)C2)c1Cn1cnc2c(N)ncnc21 [Example 101, (R)-3-amino-1-(2-((6-amino-9H-purin-9-yl)methyl)-5-chloro-4-cyano-3-ethylphenyl)-N-cyclopropylpyrrolidine-3-carboxamide] | 2000 to 3000 nM | < 1900 nM | < 50 nM | < 60 nM | –
20 | CCc1cc(Cl)cc(N2CC[C@](N)(C(=O)NC3CC3)C2)c1Cn1cnc2c(N)ncnc21 [Example 2, (R)-3-amino-1-(2-((6-amino-9H-purin-9-yl)methyl)-5-chloro-3-ethylphenyl)-N-cyclopropylpyrrolidine-3-carboxamide] | < 2000 nM | < 1900 nM | < 50 nM | < 60 nM | –
21 | Nc1ncnc2c1ncn2Cc1c(N2CC[C@](N)(C(=O)NC3CC3)C2)ccc(F)c1CN1CC(F)(F)C1 [Example 52] | < 2000 nM | < 1900 nM | 50 to 100 nM | 60 to 100 nM | –
22 | Nc1ncnc2c1ncn2Cc1c(Br)cc(Cl)cc1N1CC[C@](N)(c2nc[nH]n2)C1 [Example 18, (R)-9-(2-(3-amino-3-(1H-1,2,4-triazol-3-yl)pyrrolidin-1-yl)-6-bromo-4-chlorobenzyl)-9H-purin-6-amine] | < 2000 nM | < 1900 nM | < 50 nM | < 60 nM | –
23 | CCc1cc(-c2cnn(C)c2)cc(N2CC[C@](N)(C(=O)NC3CC3)C2)c1Cn1cnc2c(N)ncnc21 [Example 96] | > 3000 nM | 1900 to 3000 nM | < 50 nM | < 60 nM | –
24 | Nc1ncnc2c1ncn2Cc1c(N2CC[C@](N)(C(=O)NC3CC3)C2)ccc(F)c1CN1CCC1 [Example 70] | < 2000 nM | < 1900 nM | 50 to 100 nM | > 100 nM | –
25 | Nc1ncnc2c1ncn2Cc1c(N2CC[C@](N)(C(=O)NC3CC3)C2)ccc(Cl)c1COC(F)F [Example 86] | < 2000 nM | < 1900 nM | < 50 nM | < 60 nM | –
26 | Nc1ncnc2c1ncn2Cc1c(N2CC[C@](N)(C(=O)NC3CC3)C2)ccc(OC(F)(F)F)c1Br [Example 147] | < 2000 nM | < 1900 nM | – | < 60 nM | < 50 nM
27 | N#Cc1c(F)ccc(N2CC[C@](N)(C(=O)NC3CC3)C2)c1Cn1cnc2c(N)ncnc21 [Example 4] | > 3000 nM | 1900 to 3000 nM | > 100 nM | > 100 nM | –
28 | Nc1ncnc2c1ncn2Cc1c(N2CC[C@](N)(C(=O)NC3CC3)C2)ccc(F)c1C(F)(F)F [Example 116, (R)-3-amino-1-(2-((6-amino-9H-purin-9-yl)methyl)-4-fluoro-3-(trifluoromethyl)phenyl)-N-cyclopropylpyrrolidine-3-carboxamide] | < 2000 nM | < 1900 nM | < 50 nM | < 60 nM | –
29 | Nc1ncnc2c1ncn2Cc1c(N2CC[C@](N)(C(=O)NC3CC3)C2)ccc(C(F)(F)F)c1CN1CCC1 [Example 62] | < 2000 nM | < 1900 nM | < 50 nM | < 60 nM | –
30 | Nc1ncnc2c1ncn2Cc1c(Br)ccc(Cl)c1N1CC[C@@](N)(C(=O)O)C1 [Example 142] | > 3000 nM | < 1900 nM | – | < 60 nM | < 50 nM
31 | Nc1ncnc2c1ncn2Cc1c(N2CC[C@](N)(c3ccccn3)C2)ccc(F)c1C(F)(F)F [Example 23] | < 2000 nM | < 1900 nM | < 50 nM | < 60 nM | –
32 | Nc1ncnc2c1ncn2Cc1c(Br)c(Cl)c(Cl)c(Cl)c1N1CCC(N)(C(=O)NC2CC2)C1 (centres unmarked) [Example 44] | > 3000 nM | < 1900 nM | 50 to 100 nM | < 60 nM | –

Source: patent US20220380371A1, “MLL1 INHIBITORS AND ANTI-CANCER AGENTS” (NOVARTIS AG, priority 2019, published 2022)
